In PubChem BioAssay AID248 (DTP/NCI, 2004):
Several values for one entry are separate records, joined by “and”; a condition that tells them apart may be missing. Equal values may be shown once. Inconclusive results and toxic doses are left out. Cut-off read from the data, not from the text of the source: active = T/C of 150% or more; inactive = T/C below 125%.

Test system: L1210 leukemia ip in BDF1 mice, survival T/C
Test: NCI In Vivo Anticancer Drug Screen. Data for tumor model L1210 Leukemia (intraperitoneal) in B6D2F1 (BDF1) mice
Conditions: endpoint: mean survival time, higher = longer survival
Summary of the method: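 Ratio derived from survival: compound-dosed mice over vehicle-dosed mice, all bearing a transplantable tumor.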

[1] = dose: 100.0 mg/kg/injection, schedule: Q01DX001 (ip), vehicle: saline
[2] = dose: 200.0 mg/kg/injection, schedule: Q01DX001 (ip), vehicle: saline
[3] = dose: 400.0 mg/kg/injection, schedule: Q01DX001 (ip), vehicle: saline
[4] = dose: 100.0 mg/kg/injection, schedule: Q01DX009 (ip), vehicle: saline with Tween-80
[5] = dose: 100.0 mg/kg/injection, schedule: Q04DX003 (ip), vehicle: saline with Tween-80
[6] = dose: 200.0 mg/kg/injection, schedule: Q01DX009 (ip), vehicle: saline with Tween-80
[7] = dose: 200.0 mg/kg/injection, schedule: Q04DX003 (ip), vehicle: saline with Tween-80
[8] = dose: 400.0 mg/kg/injection, schedule: Q01DX009 (ip), vehicle: saline with Tween-80
[9] = dose: 100.0 mg/kg/injection, schedule: Q01DX009 (ip), vehicle: Klucel (hydroxypropylcellulose) (HPC)
[10] = dose: 200.0 mg/kg/injection, schedule: Q01DX009 (ip), vehicle: Klucel (hydroxypropylcellulose) (HPC)
[11] = dose: 400.0 mg/kg/injection, schedule: Q01DX009 (ip), vehicle: Klucel (hydroxypropylcellulose) (HPC)
[12] = dose: 100.0 mg/kg/injection, schedule: Q04DX002 (ip), vehicle: Klucel (hydroxypropylcellulose) (HPC)
[13] = dose: 200.0 mg/kg/injection, schedule: Q04DX002 (ip), vehicle: Klucel (hydroxypropylcellulose) (HPC)
[14] = dose: 400.0 mg/kg/injection, schedule: Q04DX002 (ip), vehicle: Klucel (hydroxypropylcellulose) (HPC)
[15] = dose: 100.0 mg/kg/injection, schedule: Q01DX001 (ip), vehicle: carboxymethylcellulose (CMC)
[16] = dose: 200.0 mg/kg/injection, schedule: Q01DX001 (ip), vehicle: carboxymethylcellulose (CMC)
[17] = dose: 400.0 mg/kg/injection, schedule: Q01DX001 (ip), vehicle: carboxymethylcellulose (CMC)
[18] = dose: 100.0 mg/kg/injection, schedule: Q04DX003 (ip), vehicle: Klucel (hydroxypropylcellulose) (HPC)
[19] = dose: 200.0 mg/kg/injection, schedule: Q04DX003 (ip), vehicle: Klucel (hydroxypropylcellulose) (HPC)
[20] = dose: 400.0 mg/kg/injection, schedule: Q04DX003 (ip), vehicle: Klucel (hydroxypropylcellulose) (HPC)

Measured: T/C

O=[N+]([O-])c1ccc(N=Nc2c3ccccc3c(O)n2CO)c([N+](=O)[O-])c1
inactive: [1] 97 % of control | [2] 97 % of control | [3] 98 % of control

N#CC(C#N)=Cc1c[nH]c2ccccc12
inactive: [4] 86 % of control | [5] 95 % of control | [6] 89 % of control | [7] 97 % of control | [8] 86 % of control

CCc1cc(O)c(Cl)c(C)c1Cl
inactive: dose: 50.0 mg/kg/injection, schedule: Q01DX009 (ip), vehicle: gum acacia 97 % of control | dose: 50.0 mg/kg/injection, schedule: Q04DX003 (ip), vehicle: gum acacia 94 % of control | dose: 100.0 mg/kg/injection, schedule: Q01DX009 (ip), vehicle: gum acacia 92 % of control | dose: 100.0 mg/kg/injection, schedule: Q04DX003 (ip), vehicle: gum acacia 98 % of control | dose: 200.0 mg/kg/injection, schedule: Q04DX003 (ip), vehicle: gum acacia 96 % of control

Cc1nccnc1Sc1ccc2ccccc2c1
inactive: [9] 95 % of control | [10] 92 % of control | [11] 90 % of control

COP(=O)(CN1C(=O)c2ccccc2C1=O)c1ccccc1 (configuration not stated)
inactive: [12] 94 % of control | [13] 94 % of control | [14] 101 % of control

NS(=O)(=O)c1cc2c(cc1Cl)NC(CSCC(F)(F)F)NS2(=O)=O (configuration not stated)
inactive: [15] 113 % of control | [16] 108 % of control | [17] 97 % of control

CC1C(N2CCCCC2)N(C(=O)c2ccccc2)SC12c1ccccc1-c1ccccc12 (configuration not stated)
inactive: [12] 94 % of control | [13] 102 % of control | [14] 102 % of control

O=C1c2cccc3cccc(c23)C(=O)N1O
inactive: dose: 100.0 mg/kg/injection, schedule: Q01DX001 (ip), vehicle: other 104 % of control | dose: 200.0 mg/kg/injection, schedule: Q01DX001 (ip), vehicle: other 98 % of control | dose: 400.0 mg/kg/injection, schedule: Q01DX001 (ip), vehicle: other 106 % of control

N#CCc1ccc(N=Cc2ccc([N+](=O)[O-])s2)cc1
inactive: dose: 25.0 mg/kg/injection, schedule: Q04DX003 (ip), vehicle: saline with Tween-80 102 % of control | dose: 50.0 mg/kg/injection, schedule: Q04DX003 (ip), vehicle: saline with Tween-80 90 % of control

O=C(O)C(F)(F)C(F)(F)F.[Ag]
inactive: dose: 75.0 mg/kg/injection, schedule: Q01DX001 (ip), vehicle: acetone 87 % of control

CS/C(N)=N\C(=S)Nc1ccccc1
inactive: [5] 95 % of control | [7] 97 % of control | dose: 400.0 mg/kg/injection, schedule: Q04DX003 (ip), vehicle: saline with Tween-80 101 % of control

Cc1ccc(C(=O)C(Br)C(Br)c2ccc(C)cc2)cc1 (configuration not stated)
inactive: dose: 100.0 mg/kg/injection, schedule: Q01DX001 (ip), vehicle: Klucel (hydroxypropylcellulose) (HPC) 105 % of control | [9] 96 % of control | dose: 200.0 mg/kg/injection, schedule: Q01DX001 (ip), vehicle: Klucel (hydroxypropylcellulose) (HPC) 99 % of control | [10] 91 % of control | dose: 400.0 mg/kg/injection, schedule: Q01DX001 (ip), vehicle: Klucel (hydroxypropylcellulose) (HPC) 94 % of control | [11] 95 % of control

COc1ccc(NC(=O)Nc2ccccc2Cl)cc1
inactive: [9] 96 % of control | [18] 90 % of control | [10] 95 % of control | [19] 92 % of control | [11] 91 % of control | [20] 90 % of control

CS(=O)(=O)Oc1ccc2c(c1)CCC2
inactive: [15] 104 % of control | [16] 101 % of control | [17] 95 % of control

Cc1c(-c2ccccc2)sc(/N=C/c2ccc(Cl)c(Cl)c2)c1C#N
inactive: [4] 103 % of control and 104 % of control | dose: 100.0 mg/kg/injection, schedule: Q04DX002 (ip), vehicle: saline with Tween-80 96 % of control and 101 % of control | [6] 103 % of control and 108 % of control | dose: 200.0 mg/kg/injection, schedule: Q04DX002 (ip), vehicle: saline with Tween-80 97 % of control and 104 % of control | [8] 93 % of control and 97 % of control | dose: 400.0 mg/kg/injection, schedule: Q04DX002 (ip), vehicle: saline with Tween-80 104 % of control and 115 % of control

O=S1(=O)c2ccccc2C2CC=CCC21 (configuration not stated)
inactive: dose: 50.0 mg/kg/injection, schedule: Q01DX001 (ip), vehicle: carboxymethylcellulose (CMC) 98 % of control | [15] 98 % of control | [16] 98 % of control | [17] 93 % of control

O=C1NNC(c2ccccc2)C1c1ccccc1 (configuration not stated)
inactive: [15] 93 % of control | [16] 95 % of control | [17] 97 % of control

CCCCCS(=O)(=O)N1CCCC1
inactive: [12] 107 % of control | [13] 103 % of control | [14] 111 % of control

CCCCCCCC/C=C\CCCCCCCC(=O)NCC[N+]1(C)CCCCC1
inactive: dose: 75.0 mg/kg/injection, schedule: Q01DX001 (ip), vehicle: saline 94 % of control | dose: 150.0 mg/kg/injection, schedule: Q01DX001 (ip), vehicle: saline 97 % of control

CC(=O)NS(=O)(=O)c1ccc(N=Cc2ccccc2O)cc1
inactive: [9] 101 % of control | [10] 94 % of control | [11] 100 % of control

OC(COc1ccccc1)CN1CCN(c2cccc(Cl)c2)CC1 (configuration not stated)
inactive: [1] 97 % of control | [2] 95 % of control | [3] 92 % of control

O=Nc1c(O)ccc2ccccc12
inactive: dose: 3.12 mg/kg/injection, schedule: Q01DX009 (ip), vehicle: Klucel (hydroxypropylcellulose) (HPC) 90 % of control | dose: 5.0 mg/kg/injection, schedule: Q01DX001 (ip), vehicle: saline 98 % of control | dose: 6.25 mg/kg/injection, schedule: Q01DX009 (ip), vehicle: Klucel (hydroxypropylcellulose) (HPC) 95 % of control | dose: 10.0 mg/kg/injection, schedule: Q01DX001 (ip), vehicle: saline 104 % of control | dose: 12.5 mg/kg/injection, schedule: Q01DX009 (ip), vehicle: Klucel (hydroxypropylcellulose) (HPC) 92 % of control | dose: 20.0 mg/kg/injection, schedule: Q01DX001 (ip), vehicle: saline 95 % of control | dose: 25.0 mg/kg/injection, schedule: Q01DX001 (ip), vehicle: saline with Tween-80 94 % of control | dose: 25.0 mg/kg/injection, schedule: Q01DX009 (ip), vehicle: Klucel (hydroxypropylcellulose) (HPC) 104 % of control | dose: 40.0 mg/kg/injection, schedule: Q01DX001 (ip), vehicle: saline 101 % of control | dose: 50.0 mg/kg/injection, schedule: Q01DX001 (ip), vehicle: saline with Tween-80 104 % of control | dose: 80.0 mg/kg/injection, schedule: Q01DX001 (ip), vehicle: saline 106 % of control | dose: 100.0 mg/kg/injection, schedule: Q01DX001 (ip), vehicle: saline with Tween-80 91 % of control

Cc1ccc(C(=O)C=Nc2ccc(S(N)(=O)=O)cc2)cc1
inactive: dose: 12.5 mg/kg/injection, schedule: Q04DX002 (ip), vehicle: Klucel (hydroxypropylcellulose) (HPC) 94 % of control | dose: 25.0 mg/kg/injection, schedule: Q04DX002 (ip), vehicle: Klucel (hydroxypropylcellulose) (HPC) 115 % of control | dose: 50.0 mg/kg/injection, schedule: Q04DX002 (ip), vehicle: Klucel (hydroxypropylcellulose) (HPC) 97 % of control

Cc1cccc(Nc2cc(C)nc(N)n2)c1
inactive: dose: 25.0 mg/kg/injection, schedule: Q01DX Z (ip), vehicle: methylcellulose (MC) 105 % of control | dose: 50.0 mg/kg/injection, schedule: Q01DX Z (ip), vehicle: methylcellulose (MC) 100 % of control

CN(C)Cc1c[nH]c2ccsc12
inactive: [5] 98 % of control | [7] 87 % of control

ClC(c1ccccc1)C1(Cl)C=c2ccccc2=C1 (configuration not stated)
inactive: [9] 98 % of control | [18] 102 % of control | [10] 98 % of control | [19] 92 % of control | [11] 95 % of control | [20] 96 % of control

O=C(/C=C/c1cccc2ccccc12)c1ccc(Cl)cc1
inactive: [18] 105 % of control | [19] 96 % of control | [20] 94 % of control

Cc1ccc(N2CCN(CC(O)c3ccccc3)CC2)cc1 (configuration not stated)
inactive: dose: 50.0 mg/kg/injection, schedule: Q01DX009 (ip), vehicle: Klucel (hydroxypropylcellulose) (HPC) 95 % of control | [9] 95 % of control | [10] 98 % of control

O=C(O)/C(=C\c1ccccc1[N+](=O)[O-])c1ccccc1Cl
inactive: [4] 106 % of control | [6] 98 % of control | [8] 95 % of control
